Reference: patent publication US5319096A, “(1H-indol-1-yl)-2-(amino) acetamides and related (1H-indol-1-yl)-(aminoalkyl)amides, pharmaceutical composition and use” (Hoechst-Roussel Pharmaceuticals Inc., priority 1992, dated 1994)
Structures can show the parent of a compound that is named as a salt.

What was measured:
[1] = tested on: direct infusion of NMDA or quinolinate into the rat striatum; conditions: cited from earlier work
[2] = tested on: striatal neurons, infusion of quinolinate; conditions: 100 mg/kg, i.p., 1 hour after infusion of quinolinate; cited from earlier work
[3] = tested on: global ischemia in the gerbil; conditions: cited from earlier work
[4] = tested on: NMDA-induced Striatal Lesion; experiment: Protection Against NMDA-induced Striatal Lesion (% control enzyme activity, lesioned vs contralateral striatum); type: in vivo, Male Sprague Dawley rats; conditions: ip, NMDA 150 nanomoles, 7 days post surgery; for % Control Enzyme Activity ChAT: choline acetyltransferase; for % Control Enzyme Activity GAD: glutamic acid decarboxylase
From the text: Glutamate, aspartate and other excitatory amino acids (EAA) are putative neurotransmitters at vertebrate CNS excitatory synapses. […] The neurotoxicity of EAA has led to the implication of their involvement in human neurodegenerative disorders such as Alzheimer's Disease. Subacute or chronic overexposure to endogenous neurotoxin may lead to the slow degeneration of neurons (Olney, J., Excitotoxic Amino Acids and Neuropsychiatric Disorders. Annu. Rev. Pharmacol. Toxicol. 30:47-71, 1990). […] The striatal lesion paradigm can be used to assess the neuroprotective potential of novel compounds.
Testing of the compounds was carried out as follows: Male Sprague Dawley rats (Charles River) are housed under standard laboratory conditions as outlined in the "Guide for the Care and Use of Laboratory Animals" (National Institutes of Health Publications No. 85-23, Revised 1985). Food and water were provided ad libitum; lights were on from 0600-1800 h. Sterile techniques were used during surgery.
Rats (250-320 g) were anesthetized with chloral hydrate (400 mg/kg i.p., 10 ml/kg) and mounted in a David Kopf® stereotaxic instrument. An incision was made in the scalp and the skull surface was exposed. All coordinates were taken from the point on the skull where bregma meets the midline suture. The adjustable incisor bar was set at 3.3 mm below horizontal but may be adjusted. A 1-2 mm burr hole in the skull was made with a dental drill 0.5 mm anterior to bregma and 3.0 mm lateral from the midline (Paxinos, G. and Watson, C., The Rat Brain in Stereotaxic Coordinates. New York: Academic Press, 2nd ed., 1986). […] The cannula remained in place for one minute before infusion began. A total volume of 1 μl of NMDA (150 nanomoles per μl) solution was infused slowly (0.2 μl/2 min, total time of infusion was 10 min). The cannula remained in place for 5 minutes and then was slowly withdrawn (approx. 0.1 mm every 12 sec). NMDA was dissolved in 0.1M sodium phosphate buffer, pH 7.4. An equally osmolar solution of sodium chloride was used as a control in the contralateral striatum. The burr hole was sealed with bone wax and the scalp sutured closed.
The animals were sacrificed by decapitation seven days following surgery. The striatum was dissected over ice. […]
The experimental compounds were dissolved in 0.9% NaCl or appropriate vehicle and administered i.p. either pre- and/or post-excitotoxin infusion. […] Analysis of variance was calculated by the Newman-Keuls test with the PHARM/PCS computer program (Tallarida, R. J. and Murray, R. B., Manual of Pharmacologic Calculations with Computer Programs, Springer-Verlag, New York, 1987).

[5] = tested on: neurodegeneration in the rat striatum caused by intracerebral infusion of NMDA; conditions: cited from earlier work

SMILES: O=C(O)c1cc(O)c2ccc(Cl)cc2n1 [7-Chlorokynurenate]
- neuroprotection [1]: significant neuroprotection

SMILES: O=C(O)C1CN(CCCP(=O)(O)O)CCN1 (stereo not drawn) [CPP]
- protection of striatal neurons [2]: partial protection of striatal neurons

SMILES: NC1CCN(O)C1=O (stereo not drawn) [HA-966, 3-amino-1-hydroxypyrrolid-2-one]
- neuroprotection [1]: significant neuroprotection

SMILES: NS(=O)(=O)c1cccc2c1c([N+](=O)[O-])cc1nc(O)c(O)nc12 [NBQX, 2,3-Dihydroxy-6-nitro-7-sulfamoylbenzo(F)quinoxaline]
- protection against global ischemia [3]: protects against global ischemia in the gerbil

SMILES: NCC(=O)Nn1ccc2ccccc21 [[N-(1H-Indol-1-yl)-2-amino]acetamide hydrochloride]
- % Control Enzyme Activity ChAT ([4]; 100 mg/kg, pretreatment 30 min): 68 % Control
- % Control Enzyme Activity GAD ([4]; 100 mg/kg, pretreatment 30 min): 63 % Control

SMILES: C[C@]12N[C@H](Cc3ccccc31)c1ccccc12 [dizocilpine]
- % Control Enzyme Activity ChAT ([4]; 10 mg/kg, pretreatment 60 min): 104 % Control
- % Control Enzyme Activity GAD ([4]; 10 mg/kg, pretreatment 60 min): 110 % Control
- protection against neurodegeneration in the rat striatum [5]: protected against neurodegeneration in the rat striatum
